Measured values as given in ChEMBL document CHEMBL5579900, “Enhanced Recognition Memory through Dual Modulation of Brain Carbonic Anhydrases and Cholinesterases” (J Med Chem, 2024).
pIC50: −log10 of the molar value.

Assays:
Acetylcholinesterase = Acetylcholinesterase (Electrophorus electricus, UniProt O42275)
Description: Inhibition of electric eel AChE by microplate reader based analysis

Cholinesterase = Cholinesterase (Equus caballus, UniProt P81908)
Description: Inhibition of equine serum BuChE by microplate reader based analysis

[1] = biological target: Carbonic anhydrase 1 (Homo sapiens) (UniProt P00915)
Description: Binding affinity to human carbonic anhydrase 1 assessed as activation constant by phenol red dye based stopped-flow method

[2] = biological target: Carbonic anhydrase 2 (Homo sapiens) (UniProt P00918)
Description: Binding affinity to human carbonic anhydrase 2 assessed as activation constant by phenol red dye based stopped-flow method

[3] = biological target: Carbonic anhydrase 4 (Homo sapiens) (UniProt P22748)
Description: Binding affinity to human carbonic anhydrase 4 assessed as activation constant by phenol red dye based stopped-flow method

[4] = biological target: Carbonic anhydrase 5B, mitochondrial (Homo sapiens) (UniProt Q9Y2D0)
Description: Binding affinity to human carbonic anhydrase 5B assessed as activation constant by phenol red dye based stopped-flow method

[5] = biological target: Carbonic anhydrase 7 (Homo sapiens) (UniProt P43166)
Sequence of Carbonic anhydrase 7 (Homo sapiens) (P43166 whole entry): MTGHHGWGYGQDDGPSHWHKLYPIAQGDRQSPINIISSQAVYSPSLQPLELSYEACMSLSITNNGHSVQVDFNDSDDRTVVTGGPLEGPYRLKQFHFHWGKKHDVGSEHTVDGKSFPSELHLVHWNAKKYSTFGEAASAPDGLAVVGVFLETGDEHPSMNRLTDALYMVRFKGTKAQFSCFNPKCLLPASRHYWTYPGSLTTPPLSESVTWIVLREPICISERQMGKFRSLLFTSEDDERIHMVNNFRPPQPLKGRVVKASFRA
Description: Binding affinity to human carbonic anhydrase 7 assessed as activation constant by phenol red dye based stopped-flow method

Sequence of Acetylcholinesterase (O42275 whole entry): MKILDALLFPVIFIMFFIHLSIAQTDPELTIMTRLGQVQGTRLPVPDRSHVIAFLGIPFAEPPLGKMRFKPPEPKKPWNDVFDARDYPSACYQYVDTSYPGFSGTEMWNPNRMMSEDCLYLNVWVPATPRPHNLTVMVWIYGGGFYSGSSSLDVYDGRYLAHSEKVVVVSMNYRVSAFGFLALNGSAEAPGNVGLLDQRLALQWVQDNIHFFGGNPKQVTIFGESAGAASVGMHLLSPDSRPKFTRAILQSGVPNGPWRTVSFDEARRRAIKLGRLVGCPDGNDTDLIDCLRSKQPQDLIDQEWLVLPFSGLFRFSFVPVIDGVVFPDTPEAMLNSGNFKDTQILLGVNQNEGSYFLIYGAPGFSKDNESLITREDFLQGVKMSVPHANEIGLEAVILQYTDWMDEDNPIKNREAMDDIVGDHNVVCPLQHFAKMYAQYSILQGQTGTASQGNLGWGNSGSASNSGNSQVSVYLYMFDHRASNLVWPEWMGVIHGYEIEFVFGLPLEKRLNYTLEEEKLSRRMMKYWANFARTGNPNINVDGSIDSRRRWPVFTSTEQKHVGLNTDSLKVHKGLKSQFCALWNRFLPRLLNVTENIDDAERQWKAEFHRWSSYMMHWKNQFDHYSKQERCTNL
Sequence of Cholinesterase (P81908 whole entry): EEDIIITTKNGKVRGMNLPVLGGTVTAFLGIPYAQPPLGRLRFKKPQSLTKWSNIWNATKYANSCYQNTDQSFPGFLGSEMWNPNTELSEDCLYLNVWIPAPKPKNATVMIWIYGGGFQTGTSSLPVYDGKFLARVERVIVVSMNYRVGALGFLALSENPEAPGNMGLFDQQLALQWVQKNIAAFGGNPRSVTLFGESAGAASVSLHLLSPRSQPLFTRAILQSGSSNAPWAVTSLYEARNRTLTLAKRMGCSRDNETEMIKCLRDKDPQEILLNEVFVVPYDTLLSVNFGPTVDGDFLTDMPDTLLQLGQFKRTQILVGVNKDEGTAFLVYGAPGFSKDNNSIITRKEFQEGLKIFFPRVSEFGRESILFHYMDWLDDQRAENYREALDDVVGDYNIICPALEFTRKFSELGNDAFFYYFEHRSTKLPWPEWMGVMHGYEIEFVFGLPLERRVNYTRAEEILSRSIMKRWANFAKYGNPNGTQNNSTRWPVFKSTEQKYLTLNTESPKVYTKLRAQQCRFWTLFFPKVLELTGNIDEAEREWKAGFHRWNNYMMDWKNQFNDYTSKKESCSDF
Sequence of Carbonic anhydrase 4 (Homo sapiens) (P22748 whole entry): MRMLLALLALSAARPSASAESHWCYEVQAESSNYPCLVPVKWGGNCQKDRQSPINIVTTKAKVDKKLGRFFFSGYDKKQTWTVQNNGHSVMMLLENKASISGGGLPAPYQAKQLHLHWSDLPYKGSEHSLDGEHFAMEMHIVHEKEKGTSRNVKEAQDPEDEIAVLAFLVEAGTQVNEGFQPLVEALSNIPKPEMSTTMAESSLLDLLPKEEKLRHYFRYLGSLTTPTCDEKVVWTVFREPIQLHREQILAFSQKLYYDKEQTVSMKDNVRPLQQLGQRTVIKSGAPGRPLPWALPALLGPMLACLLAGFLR
Sequence of Carbonic anhydrase 5B, mitochondrial (Homo sapiens) (Q9Y2D0 whole entry): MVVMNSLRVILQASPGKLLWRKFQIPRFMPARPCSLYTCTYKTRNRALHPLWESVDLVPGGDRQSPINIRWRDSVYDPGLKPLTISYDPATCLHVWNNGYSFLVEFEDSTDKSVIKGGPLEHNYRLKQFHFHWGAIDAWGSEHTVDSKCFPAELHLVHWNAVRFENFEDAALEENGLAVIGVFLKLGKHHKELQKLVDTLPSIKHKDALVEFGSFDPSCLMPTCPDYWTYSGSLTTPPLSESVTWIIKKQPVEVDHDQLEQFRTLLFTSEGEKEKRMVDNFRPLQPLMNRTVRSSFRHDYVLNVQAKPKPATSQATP
Sequence of Carbonic anhydrase 1 (Homo sapiens) (P00915 2-261 limits assumed): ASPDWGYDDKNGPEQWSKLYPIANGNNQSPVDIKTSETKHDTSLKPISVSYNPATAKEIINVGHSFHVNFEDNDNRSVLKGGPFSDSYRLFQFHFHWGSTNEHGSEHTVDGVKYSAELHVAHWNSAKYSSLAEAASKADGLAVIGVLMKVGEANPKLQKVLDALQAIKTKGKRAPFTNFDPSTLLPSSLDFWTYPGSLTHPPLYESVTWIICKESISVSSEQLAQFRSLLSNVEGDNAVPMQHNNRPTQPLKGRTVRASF

Compound | pIC50 (Acetylcholinesterase) | pIC50 (Cholinesterase) | KA ([1]; filed as activator) | KA ([2]; filed as activator) | KA ([3]; filed as activator) | KA ([4]; filed as activator) | KA ([5]; filed as activator) | KA [1] | KA [3] | KA [5] | KA [2] | KA [4]
COC(=O)[C@H](Cc1c[nH]cn1)NCCCCCNc1c2c(nc3ccccc13)CCCC2 | 6.84 | 8.36 | 311 nM | 175 nM | 3.65 µM | 2.43 µM | 211 nM |  |  |  |  | 
N[C@@H](Cc1ccccc1)C(=O)NCCCCCCNc1c2c(nc3ccccc13)CCCC2 | 7.11 | 8.57 | 481 nM | 157 nM | 4.78 µM | 4.64 µM | 160 nM |  |  |  |  | 
COC(=O)[C@@H](N)Cc1ccc(OCCCCCNc2c3c(nc4ccccc24)CCCC3)cc1 | 7.66 | 10.32 | 552 nM | 372 nM | 16.8 µM | 1.73 µM | 803 nM |  |  |  |  | 
CC(C)(C)OC(=O)N[C@@H](Cc1cn(C(=O)OC(C)(C)C)cn1)C(=O)NCCCCCNc1c2c(nc3ccccc13)CCCC2 | 6.85 | 9.24 |  | 11100 nM |  | 9.05 µM |  | > 50000 nM | > 50 µM | > 50000 nM |  | 
CC(C)(C)OC(=O)N[C@@H](CCCCNC(=O)OCc1ccccc1)C(=O)NCCCCCNc1c2c(nc3ccccc13)CCCC2 | 6.52 | 9.47 |  |  |  |  |  | > 50000 nM | > 50 µM | > 50000 nM | > 50000 nM | > 50 µM
CC(C)(C)OC(=O)N[C@@H](Cc1c[nH]c2ccccc12)C(=O)NCCCCNc1c2c(nc3ccccc13)CCCC2 | 7.08 | 9.68 | 2620 nM | 7650 nM | 8.58 µM | 8.64 µM | 2630 nM |  |  |  |  | 
CC(C)(C)OC(=O)N[C@@H](CCCCNC(=O)OCc1ccccc1)C(=O)NCCCCNc1c2c(nc3ccccc13)CCCC2 | 6.49 | 9.80 |  |  |  |  |  | > 50000 nM | > 50 µM | > 50000 nM | > 50000 nM | > 50 µM
N[C@@H](Cc1c[nH]c2ccccc12)C(=O)NCCCCCNc1c2c(nc3ccccc13)CCCC2 | 7.42 | 9.00 | 630 nM | 119 nM | 1.72 µM | 0.936 µM | 105 nM |  |  |  |  | 
CC(C)(C)OC(=O)N[C@@H](Cc1ccccc1)C(=O)NCCCNc1c2c(nc3ccccc13)CCCC2 | 6.69 | 9.80 |  |  |  |  |  | > 50000 nM | > 50 µM | > 50000 nM | > 50000 nM | > 50 µM
N[C@@H](Cc1c[nH]c2ccccc12)C(=O)NCCCCCCNc1c2c(nc3ccccc13)CCCC2 | 8.62 | 8.92 | 876 nM | 539 nM | 0.541 µM | 0.353 µM | 79.8 nM |  |  |  |  | 
COC(=O)[C@H](Cc1ccccc1)NCCCCCNc1c2c(nc3ccccc13)CCCC2 | 6.96 | 8.42 | 731 nM | 247 nM | 3.45 µM | 5.32 µM | 535 nM |  |  |  |  | 
N[C@@H](CCCCNC(=O)OCc1ccccc1)C(=O)NCCCCCNc1c2c(nc3ccccc13)CCCC2 | 6.62 | 9.48 | 3530 nM | 981 nM | 3.61 µM | 4.97 µM | 2730 nM |  |  |  |  | 
CC(C)(C)OC(=O)N[C@@H](Cc1c[nH]c2ccccc12)C(=O)NCCCCCCNc1c2c(nc3ccccc13)CCCC2 | 7.80 | 9.59 | 1120 nM | 2660 nM | 4.46 µM | 24.2 µM | 1130 nM |  |  |  |  | 
N[C@@H](CCCCNC(=O)OCc1ccccc1)C(=O)NCCCCNc1c2c(nc3ccccc13)CCCC2 | 6.60 | 8.60 | 3270 nM | 1900 nM | 9.73 µM | 1.4 µM | 975 nM |  |  |  |  | 
N[C@@H](Cc1c[nH]c2ccccc12)C(=O)NCCCNc1c2c(nc3ccccc13)CCCC2 | 7.23 | 8.80 | 1010 nM | 833 nM | 2.33 µM | 1.96 µM | 566 nM |  |  |  |  | 
COC(=O)[C@H](Cc1ccc(OCCCCCNc2c3c(nc4ccccc24)CCCC3)cc1)NC(=O)OC(C)(C)C | 7.18 | < 7.82 |  |  |  |  |  | > 50000 nM | > 50 µM | > 50000 nM | > 50000 nM | > 50 µM
N[C@@H](Cc1ccccc1)C(=O)NCCCNc1c2c(nc3ccccc13)CCCC2 | 6.62 | 9.66 | 893 nM | 726 nM | 5.85 µM | 0.971 µM | 491 nM |  |  |  |  | 
NCCc1c[nH]cn1 |  |  | 2100 nM |  | 25 µM | 3.5 µM | 37000 nM |  |  |  | > 100000 nM | 
N[C@@H](Cc1c[nH]cn1)C(=O)NCCCCCCNc1c2c(nc3ccccc13)CCCC2 | 7.92 | 8.28 | 1050 nM | 283 nM | 3.56 µM | 0.554 µM | 82.8 nM |  |  |  |  | 
